Read-outs that look alike come from different tables or passages of the source.
Legend:
[1] = system: SK-BR-3 human breast adenocarcinoma; experiment: SRB cell proliferation (cytotoxicity) assay, SK-BR-3
Source text: (§1) The XLSTAT software was used to determine the IC50, TGI and LC50 values using the four-parameter logistic curve equation.

[2] = system: DU-145 human prostate carcinoma cell line; experiment: SRB cell proliferation (cytotoxicity) assay, DU-145; details: for Relative cell viability (%): human
Source text: as §1

[3] = system: MCF-7 human breast adenocarcinoma cell line; experiment: SRB cell proliferation (cytotoxicity) assay, MCF-7
Source text: as §1

[4] = system: A-375 human malignant melanoma; experiment: SRB cell proliferation (cytotoxicity) assay, A-375
Source text: as §1

[5] = in vitro; details: human
Source text: as §1

[6] = system: NHF human foreskin skin fibroblasts; experiment: SRB cell proliferation (cytotoxicity) assay, NHF; details: for IC50: read-out: IC50: Concentration to inhibit 50% of cell growth
Source text: as §1

[7] = system: HT-29 human colorectal adenocarcinoma; experiment: SRB cell proliferation (cytotoxicity) assay, HT-29
Source text: as §1

[8] = system: HCT 116 human colorectal carcinoma; experiment: SRB cell proliferation (cytotoxicity) assay, HCT 116
Source text: as §1

[9] = system: OVCAR-3 human ovarian adenocarcinoma cell line; experiment: SRB cell proliferation (cytotoxicity) assay, OVCAR-3; details: for Relative cell viability (%): human
Source text: as §1

[10] = target: T1, native human galectin-1 (hGal1) (Homo sapiens, UniProt P09382); experiment: Thermofluor thermal shift assay (TSA), native galectin-1; assay type: binding; details: 5 μM protein
T1 construct: 42; made in house; host or cells: E. coli strain M-15
T1 sequence (P09382 2-135): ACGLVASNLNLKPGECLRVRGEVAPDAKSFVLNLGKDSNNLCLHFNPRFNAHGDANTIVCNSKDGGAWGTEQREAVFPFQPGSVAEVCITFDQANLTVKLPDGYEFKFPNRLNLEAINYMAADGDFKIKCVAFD
Procedure: In an attempt to screen among the selected aptamers that better interact with hGal1, differential scanning fluorimetry (Termofluor) was used to characterize their binding to its target. Among all the selected aptamers, SEQ ID NO.: 4 seemed to have a more intense effect on hGal1 thermoshift and so was chosen for further analysis. The selected aptamer had its interaction evaluated with native and alkylated galectin-1. […] The respective thermal displacements were evaluated as a function of an increasing concentration of SEQ ID NO.: 4 (FIG. 1).
Thermofluor experiments were performed on an Mx3005 RT-PCR (Agilent Technologies) using the SYPRO® Orange dye (492/610 nm) (Invitrogen) as fluorescent probe. The purified (native and alkylated) protein samples were incubated for 30 min with increasing concentration of the molecules of interest, centrifuged, and submitted to the thermal denaturation assay, totalizing four distinct experiments. In a 96-well plate (Agilent Technologies) 20 μl of the reaction containing 5 μM of each protein in buffer PBS 1× and 5× SYPRO® Orange were heated from 25° C. to 95° C. at a rate of 1° C./min. The experimental result was processed as in the protocol previously described and the melting temperature was obtained using GraphPad Prism software (www.graphpad.com).

[11] = system: OVCAR-3 cell line; experiment: Synergism test with cisplatin, OVCAR-3; details: cisplatin 3 μM
Source text: For the analysis of cell proliferation, the non-clonogenic method of sulforodamine B (SRB) was used, a protein dye that binds to the basic amino acid residues of cell proteins that were viable at the time of the fixation process. Therefore, the greater the amount of SRB bound per compartment, the less the antiproliferative activity of the item under study.

[12] = target: T2, hGal1-induced hemagglutination of red blood cells (Homo sapiens, UniProt P09382); experiment: Hemagglutination inhibition assay, native hGal1; assay type: cell-based; details: native Gal1 5 μM
T2 construct: 42; made in house; host or cells: E. coli strain M-15
T2 sequence (P09382 2-135): as above
Procedure: Hemagglutination Inhibition Assay
Hemagglutination assay was adopted to assess the capacity of SEQ ID NO.: 4 in inhibiting the lectin cross-linking aggregation of red blood cells (RBC), as previously described. Briefly, using a 96-well microplates appropriate amounts of 5 μM hGal1 were blended with 50 μL of aptamer in an increasing concentrations manner (0-40 μM) in PBS 1× buffer (pH 7.4). Following, 50 μL of 3% purified type B+ RBC in PBS. After 2 h of room temperature incubation, the plate was photographed and the hemagglutination area was estimated by area calculator Sketchandcalc™ and the results were expressed as relative agglutination.

[13] = Homo sapiens, SK-BR-3, read-out: Relative cell viability (%)
[14] = Homo sapiens, DU-145, read-out: Relative cell viability (%)
[15] = Homo sapiens, MCF7, read-out: Relative cell viability (%)
[16] = Homo sapiens, A-375, read-out: Relative cell viability (%)
[17] = Homo sapiens, HT-29, read-out: Relative cell viability (%)
[18] = Homo sapiens, HCT-116, read-out: Relative cell viability (%)
[19] = Homo sapiens, OVCAR-3, read-out: Relative cell viability (%)

## CC(=O)O[C@H]1C(=O)[C@@]2(C)[C@H]([C@H](OC(=O)c3ccccc3)[C@]3(O)C[C@H](OC(=O)[C@H](O)[C@@H](NC(=O)c4ccccc4)c4ccccc4)C(C)=C1C3(C)C)[C@]1(OC(C)=O)CO[C@@H]1C[C@@H]2O [Paclitaxel, reference compound]
[1]; Homo sapiens, SK-BR-3, read-out: IC50: Concentration to inhibit 50% of cell growth
  IC50: 0.0148 µM
[1]; [13]
  viability at 0.000781 µM: 113%
  viability at 0.001562 µM: 113%
  viability at 0.003125 µM: 119%
  viability at 0.00625 µM: 106%
  viability at 0.0125 µM: 68.3%
  viability at 0.05 µM: 12.3%
  viability at 0.1 µM: 13.9%
[2]; DU-145
  TGI: Concentration for total inhibition of cell growth: 0.013021 µM
[2]; Homo sapiens, DU-145, read-out: IC50: Concentration to inhibit 50% of cell growth
  IC50: 0.0072 µM
[2]; [14]
  viability at 0.000781 µM: 104%
  viability at 0.001562 µM: 95.5%
  viability at 0.003125 µM: 97.3%
  viability at 0.00625 µM: 58.9%
  viability at 0.0125 µM: 8.4%
[2]; 0.05 µM
  Relative cell viability (%): −15.7%
[2]; 0.1 µM
  Relative cell viability (%): −25.6%
[3]; Homo sapiens, MCF7, read-out: IC50: Concentration to inhibit 50% of cell growth
  IC50: 0.00282 µM
[3]; [15]
  viability at 0.000781 µM: 87.9%
  viability at 0.001562 µM: 65.5%
  viability at 0.003125 µM: 47.6%
  viability at 0.00625 µM: 36.9%
  viability at 0.0125 µM: 29.3%
  viability at 0.05 µM: 23.6%
  viability at 0.1 µM: 24.7%
[4]; [16]
  viability at 0.000781 µM: 117%
  viability at 0.001562 µM: 96.3%
  viability at 0.003125 µM: 99.4%
  viability at 0.00625 µM: 98.8%
  viability at 0.0125 µM: 113%
  viability at 0.05 µM: 91.2%
  viability at 0.1 µM: 69%
[5]
  CC50: > 0.1 µM
  viability at 0.000781 µM: 86.6%
  viability at 0.001562 µM: 79.7%
  viability at 0.003125 µM: 72.1%
  viability at 0.00625 µM: 61.9%
  viability at 0.0125 µM: 58.6%
  viability at 0.05 µM: 28.7%
  viability at 0.1 µM: 16.9%
[6]; Homo sapiens, Skin fibroblast
  IC50: 0.0187 µM
[6]; NHF
  TGI: Concentration for total inhibition of cell growth: >0.1 µM
[7]; Homo sapiens, HT-29, read-out: IC50: Concentration to inhibit 50% of cell growth
  IC50: 0.00631 µM
[7]; [17]
  viability at 0.000781 µM: 102%
  viability at 0.001562 µM: 99.1%
  viability at 0.003125 µM: 80.8%
  viability at 0.00625 µM: 48.8%
  viability at 0.0125 µM: 24.5%
  viability at 0.05 µM: 6.7%
  viability at 0.1 µM: 5%
[8]; Homo sapiens, HCT-116, read-out: IC50: Concentration to inhibit 50% of cell growth
  IC50: 0.00646 µM
[8]; [18]
  viability at 0.000781 µM: 96.2%
  viability at 0.001562 µM: 96.6%
  viability at 0.003125 µM: 90.9%
  viability at 0.00625 µM: 50.6%
  viability at 0.0125 µM: 17.5%
  viability at 0.05 µM: 3.4%
  viability at 0.1 µM: 4.7%
[9]; Homo sapiens, OVCAR-3, read-out: IC50: Concentration to inhibit 50% of cell growth
  IC50: 0.01 µM
[9]; Homo sapiens, OVCAR-3, read-out: LC50: Concentration for 50% cell death
  CC50: 0.0351 µM
[9]; [19]
  viability at 0.000781 µM: 96.9%
  viability at 0.001562 µM: 90.1%
  viability at 0.003125 µM: 89.6%
  viability at 0.00625 µM: 69.6%
  viability at 0.0125 µM: 31.1%
[9]; OVCAR-3
  TGI: Concentration for total inhibition of cell growth: 0.015402 µM
[9]; 0.05 µM
  Relative cell viability (%): −45.1%
[9]; 0.1 µM
  Relative cell viability (%): −57.5%

B1: AGCTGACACAGCAGGTTGGTGCGCCCAATACAGGCGCAGTATCTGTCCGTGGGCCGGGTAAAAGTTACGGACCGAGTCGAGCAATCTCGAAAT (nucleic acid)
DNA: AGCTGACACAGCAGGTTGGTGCGCCCAATACAGGCGCAGTATCTGTCCGTGGGCCGGGTAAAAGTTACGGACCGAGTCGAGCAATCTCGAAAT
modifications: chemistry not given here
[1]; SK-BR-3
  TGI: Concentration for total inhibition of cell growth: 37.529 µM
[1]; read-out: IC50: Concentration to inhibit 50% of cell growth, SK-BR-3
  IC50: 24.3 µM
[1]; read-out: LC50: Concentration for 50% cell death, SK-BR-3
  CC50: 60.2 µM
[10]
  variation of denaturation temperature (Tm) of native hGal1: greater variation
[2]; DU-145
  TGI: Concentration for total inhibition of cell growth: 42.423 µM
[2]; read-out: IC50: Concentration to inhibit 50% of cell growth, DU-145
  IC50: 23.4 µM
[2]; read-out: LC50: Concentration for 50% cell death, DU-145
  CC50: 83.5 µM
[11]
  effect on the profile of antiproliferative activity in association with cisplatin: enhances
[3]; MCF-7
  TGI: Concentration for total inhibition of cell growth: 48.434 µM
[3]; read-out: IC50: Concentration to inhibit 50% of cell growth, MCF-7
  IC50: 17.8 µM
[3]; read-out: LC50: Concentration for 50% cell death, MCF-7
  CC50: 84.1 µM
[4]; A-375
  TGI: Concentration for total inhibition of cell growth: 36.326 µM
[4]; read-out: IC50: Concentration to inhibit 50% of cell growth, A-375
  IC50: 26.3 µM
[4]; read-out: LC50: Concentration for 50% cell death, A-375
  CC50: 51.5 µM
[6]; NHF
  TGI: Concentration for total inhibition of cell growth: 53.452 µM
  IC50: 33.7 µM
[6]; read-out: LC50: Concentration for 50% cell death, NHF
  CC50: 93.6 µM
[12]
  inhibitory effect on galectin-induced hemagglutination: better effect
[7]; HT-29
  TGI: Concentration for total inhibition of cell growth: 30.010 µM
[7]; read-out: IC50: Concentration to inhibit 50% of cell growth, HT-29
  IC50: 14.6 µM
[7]; read-out: LC50: Concentration for 50% cell death, HT-29
  CC50: 60.3 µM
[8]; HCT 116
  TGI: Concentration for total inhibition of cell growth: 41.730 µM
[8]; read-out: IC50: Concentration to inhibit 50% of cell growth, HCT 116
  IC50: 16 µM
[8]; read-out: LC50: Concentration for 50% cell death, HCT 116
  CC50: 96.3 µM
[9]; OVCAR-3
  TGI: Concentration for total inhibition of cell growth: 37.711 µM
[9]; read-out: IC50: Concentration to inhibit 50% of cell growth, OVCAR-3
  IC50: 11.1 µM
[9]; read-out: LC50: Concentration for 50% cell death, OVCAR-3
  CC50: 87.8 µM

Source: patent US11649460B2, “DNA aptamers, method for inhibiting human galectin-1 and method of treating a mammal in need thereof” (priority 2020, dated 2023)
